# Target: T1, recombinant PTP1B catalytic domain (Homo sapiens, UniProt P18031)
# T1 construct: made in house
# T1 sequence (P18031 3-277 limits assumed): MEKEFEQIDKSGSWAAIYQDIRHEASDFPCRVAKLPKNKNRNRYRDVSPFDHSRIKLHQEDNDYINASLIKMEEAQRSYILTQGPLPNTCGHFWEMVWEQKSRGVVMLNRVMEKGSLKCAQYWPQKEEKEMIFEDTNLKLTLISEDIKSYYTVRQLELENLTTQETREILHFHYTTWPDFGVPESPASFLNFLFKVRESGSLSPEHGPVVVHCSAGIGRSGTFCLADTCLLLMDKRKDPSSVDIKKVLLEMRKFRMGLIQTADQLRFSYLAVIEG
# Assay: PTP1B inhibition assay (pNPP substrate)
# Type: biochemical
# Details: pNPP as substrate, absorbance at 405 nm, 37 °C; read-out: IC50, inhibitory activity against PTP1B
# Protocol: The expressed and purified methods of recombinant PTP1B catalytic domain were the same as references (Liu et al., [2018]). The dephosphorylation of p-nitrophenyl phosphate (pNPP) generated the product pNP, which can be monitored at an absorbance for 405 nm. The compounds were pre-incubated with the enzyme at 37 °C for 5 min. […] After incubation at 37°C for 15 min, the reaction was […] using 0.5 M pNPP (12.5 μL). After initializing the enzymatic reaction, the plate was then read every 20 s for 15 min in the microplate reader at 405 nm. […] The equation used was: [(Ablank-Asample)/Ablank] × 100%. The IC50 values were determined by linear or non-linear regression analysis of the concentration-response data curve.
row,IC50 [µM],SMILES
1,17,"C/C(=C\CC/C(=C/CC/C(=C/C(=O)c1cc(O)ccc1O)C(=O)O)CO)COC(=O)/C=C/c1ccc(O)cc1 [Compound 1, Ganoduriporol F]"
2,23,"CC(=O)OCC(CC/C=C(\C)COC(=O)/C=C/c1ccc(O)cc1)CCC/C(=C/C(=O)c1cc(O)ccc1O)C(=O)O (stereo not shown) [Compound 4, Ganoduriporol I]"
3,20,"C/C(=C\CCC(CO)CCC/C(=C/C(=O)c1cc(O)ccc1O)C(=O)O)COC(=O)/C=C/c1ccc(O)c(O)c1 (stereo not shown) [Compound 2, Ganoduriporol G]"
4,19,"CC(=O)OCC(CC/C=C(/CC(=O)c1cc(O)ccc1O)C(=O)O)CC/C=C(\C)COC(=O)/C=C/c1ccc(O)cc1 (stereo not shown) [Compound 3, Ganoduriporol H]"

# Source: PMC7176929, “Meroterpenoids With Protein Tyrosine Phosphatase 1B Inhibitory Activities From the Fruiting Bodies of Ganoderma ahmadii” (Frontiers in Chemistry, 2020)
